Test results taken from ChEMBL document CHEMBL1201862, “PubChem BioAssay data set” (2004).
“And” between values parts separate entries of the source, which are not always exact repeats. Identical values can stand only once. The source made the active and inactive calls.

Columns and labels:
[1] = Luminescence Cell-Based Dose Confirmation HTS to Identify Inhibitors of Polyadenylation.; type: functional
[2] = target: Glyceraldehyde-3-phosphate dehydrogenase (Homo sapiens, UniProt P04406)
[3] = Fluorescence-based cell-based high throughput dose response assay for inhibitors of the interaction of nucleotide-binding oligomerization domain containing 2 (NOD2) and the receptor-interacting serine-threonine kinase 2 (RIPK2).; type: functional, Homo sapiens; conditions: Homo sapiens
[4] = test system: HEK293; assay: SAR analysis of compounds that are cytotoxic to HEK293 - Set 3. [Related pubchem assays (depositor defined):AID1575, AID1578, AID1848, AID1849, AID2001, AID2333, AID2334, AID2335, AID2337, AID2469]; type: functional, cell-based; conditions: Homo sapiens
[5] = target: T1, Hepatocyte nuclear factor 4-alpha (Homo sapiens, UniProt P41235); type: functional, cell-based;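 also: biochemical luminescence-based dose-response counterscreen measuring inhibition of HNF4 dimerization, run alongside a screen for blockers of ABHD5–perilipin-5 interaction; split luciferase complementation of HNF4 fusion proteins in cell lysate measuring dimerization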
T1 sequence (P41235 whole entry): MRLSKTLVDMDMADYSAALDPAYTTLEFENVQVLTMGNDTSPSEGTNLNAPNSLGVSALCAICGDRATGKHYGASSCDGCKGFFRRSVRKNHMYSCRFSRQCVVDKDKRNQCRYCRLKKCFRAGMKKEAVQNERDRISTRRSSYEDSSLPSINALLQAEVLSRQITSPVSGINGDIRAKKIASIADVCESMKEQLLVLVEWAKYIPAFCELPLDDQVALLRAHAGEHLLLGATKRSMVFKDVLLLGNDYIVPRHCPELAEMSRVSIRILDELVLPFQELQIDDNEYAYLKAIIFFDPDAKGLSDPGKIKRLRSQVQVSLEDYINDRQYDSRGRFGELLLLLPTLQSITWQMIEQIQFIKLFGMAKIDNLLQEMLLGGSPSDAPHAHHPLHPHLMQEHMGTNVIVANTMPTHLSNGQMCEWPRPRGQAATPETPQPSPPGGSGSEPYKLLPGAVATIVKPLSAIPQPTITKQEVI

[6] = C. albicans growth with fluconazole, confirmation, fluorescence, retest (AID 2467); type: functional, cell-based
[7] = HepG2 cell cytotoxicity, dose response, cytotoxicity control for Shn3 inhibitor project, CellTiter-Glo, cherry-picked (AID 624134); type: functional, cell-based
[8] = cytotoxicity in KRAS-transformed pancreatic duct cells, primary screen, cell-based, fluorescence, HTS (AID 431); type: functional; conditions: Homo sapiens;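 also: cell line used: HPDE-C7K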
[9] = NIH-3T3 fibroblast cytotoxicity, dose response, cytotoxicity control, cell-based, fluorescence, Alamar Blue, secondary assay (AID 2327); type: functional;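 also: NIH-3T3 mouse fibroblasts cultured with fluconazole at 8 µg/mL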
[10] = target: T2, Bcl-2-related protein A1 (Mus musculus, UniProt Q07440); assay: Bfl-1 inhibitors, primary screen, biochemical, fluorescence polarization, FITC-Bid, mouse (AID 432)
T2 sequence (Q07440 whole entry): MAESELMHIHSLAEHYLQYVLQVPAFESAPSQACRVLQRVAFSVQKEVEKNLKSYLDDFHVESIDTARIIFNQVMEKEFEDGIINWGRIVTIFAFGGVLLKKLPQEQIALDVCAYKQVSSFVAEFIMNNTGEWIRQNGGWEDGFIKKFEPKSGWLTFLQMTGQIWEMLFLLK

[11] = target: T2, Bcl-2-related protein A1; assay: Bfl-1 inhibitors blocking BH3 peptide binding, confirmation, biochemical, TR-FRET, mouse Bfl-1 (AID 621);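 also: TR-FRET binding of GST-Bfl-1 to FITC-labelled Bid peptide via terbium antibody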
[12] = cytotoxicity in HPDE-C7 cells, cell-based, fluorescence, HTS (AID 430); type: functional; conditions: Homo sapiens
[13] = target: Nucleotide-binding oligomerization domain-containing protein 2 (Homo sapiens, UniProt Q9HC29); assay: NOD2 signaling inhibitors, analog potency, SAR follow-up, cell-based, set 3 (AID 2799); type: functional
[14] = target: Tumor necrosis factor (Homo sapiens, UniProt P01375); assay: TNFa-triggered NF-kB activation inhibitors, SAR follow-up, cell-based, set 3 (AID 2801); type: functional
[15] = target: Beta-galactosidase (Escherichia coli, UniProt Q8VNN2); assay: beta-galactosidase enzyme inhibitors and activators, dose response, artefact control for CCR6 antagonist project, biochemical, E. coli enzyme, set 3 (AID 504712); type: functional
[16] = control 3'UTR Renilla luciferase suppression, dose response, counter-screen for Shn3 inhibitor project, cell-based, Clone20-Shn3RL, cherry-picked (AID 624133); type: functional
[17] = target: T3, Nucleotide-binding oligomerization domain-containing protein 1 (Homo sapiens, UniProt Q9Y239); assay: SAR analysis of compounds that inhibit NOD1 - Set 3. [Related pubchem assays (depositor defined):AID1566, AID1575, AID1578, AID1849, AID1852, AID2333, AID2335, AID2466]; type: functional
T3 sequence (Q9Y239 whole entry): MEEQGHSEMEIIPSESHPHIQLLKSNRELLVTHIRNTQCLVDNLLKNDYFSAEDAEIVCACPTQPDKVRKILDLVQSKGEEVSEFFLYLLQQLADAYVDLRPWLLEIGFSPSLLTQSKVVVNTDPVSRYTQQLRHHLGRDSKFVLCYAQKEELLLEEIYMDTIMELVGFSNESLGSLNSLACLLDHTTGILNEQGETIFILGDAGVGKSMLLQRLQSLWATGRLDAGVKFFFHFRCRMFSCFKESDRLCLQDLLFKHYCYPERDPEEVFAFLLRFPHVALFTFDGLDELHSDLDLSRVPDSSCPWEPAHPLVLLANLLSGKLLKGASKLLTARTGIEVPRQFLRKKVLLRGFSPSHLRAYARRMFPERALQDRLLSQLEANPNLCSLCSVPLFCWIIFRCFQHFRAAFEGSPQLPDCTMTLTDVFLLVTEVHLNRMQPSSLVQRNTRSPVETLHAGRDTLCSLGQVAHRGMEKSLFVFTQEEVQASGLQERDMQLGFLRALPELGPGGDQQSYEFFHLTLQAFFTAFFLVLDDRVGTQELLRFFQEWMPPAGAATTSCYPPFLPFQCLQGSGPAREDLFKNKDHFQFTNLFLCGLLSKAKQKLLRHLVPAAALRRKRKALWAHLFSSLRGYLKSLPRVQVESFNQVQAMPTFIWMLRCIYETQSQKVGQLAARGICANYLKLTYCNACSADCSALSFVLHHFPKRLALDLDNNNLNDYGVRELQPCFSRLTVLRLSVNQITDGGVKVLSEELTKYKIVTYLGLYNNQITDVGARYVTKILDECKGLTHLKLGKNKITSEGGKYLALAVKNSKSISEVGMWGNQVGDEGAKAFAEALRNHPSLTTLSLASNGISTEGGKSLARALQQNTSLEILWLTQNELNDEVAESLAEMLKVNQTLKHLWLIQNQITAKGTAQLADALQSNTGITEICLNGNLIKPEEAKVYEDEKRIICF

[18] = HEK293T cell cytotoxicity, dose response, cytotoxicity control for HIV Vif inhibitor project, cherry-picks (AID 652208); type: functional, cell-based
[19] = Shn3 3'UTR reporter inhibitors, dose response, cell-based, Clone20 osteoblasts, firefly luciferase, cherry-picked (AID 624132); type: functional;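 also: firefly luciferase luminescence from reporter carrying the Shn3 3'UTR in osteoblasts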
[20] = target: G-protein coupled receptor 55 (Homo sapiens, UniProt Q9Y2T6); assay: GPR55 antagonists blocking LPI-driven arrestin recruitment, primary screen, imaging, U2OS, beta-arrestin-GFP, LPI agonist (AID 2013); type: functional;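 also: antagonist potency measured as reduced agonist-driven arrestin aggregation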
[21] = target: T2, Bcl-2-related protein A1; assay: Bfl-1 binding inhibitors, SAR follow-up, biochemical, fluorescence polarization (AID 1070)
[22] = target: Beta Lactamase (Pseudomonas aeruginosa, UniProt Q932Y6); assay: beta-lactamase reporter inhibitor potency, dose response, artefact control for NOD2-RIPK2 interaction inhibitor project, BLA reporter cells, FRET fluorescence (AID 651552); type: functional, cell-based
[23] = inhibitors of PGC1a acetylation in cells, dose response, cell-based, cherry-picked samples (AID 720514); type: functional;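 also: potency may reflect raised or lowered acetylation signal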
[24] = target: Sphingosine 1-phosphate receptor 2 (Homo sapiens, UniProt O95136); assay: Dose Response Cell Based Assay for Agonists of the S1P2 Receptor of Purchased Analogues. [Related pubchem assays: 729, 843, 854, 736 ]; type: functional
[25] = target: Protein-tyrosine kinase 2-beta (Homo sapiens, UniProt Q14289);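 also: potency of inhibitors of PYK2 kinase phosphorylation of poly-GT substrate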
[26] = target: Procathepsin L (Homo sapiens, UniProt P07711); assay: cathepsin L inhibitors, dose response, counter-screen for M1/M17 aminopeptidase inhibitor project, biochemical, QFRET, 1536-well (AID 2214)
[27] = target: Aspartyl aminopeptidase (Plasmodium falciparum 3D7, UniProt Q8I2J3); assay: Counterscreen for inhibitors of M1 and M17 aminopeptidases: QFRET-based biochemical high throughput dose response assay for inhibitors of the Plasmodium falciparum M18 Aspartyl Aminopeptidase (PFM18AAP). [Related PubChem assays: 1619 (Screening assay (M17LAP inhibitors).), 1445 (Screening assay (M1AAP inhibitors).)]
[28] = target: T4, Leucine aminopeptidase (Plasmodium falciparum 3D7, UniProt Q8IL11); assay: P. falciparum M17LAP inhibitors, primary screen, biochemical, fluorogenic H-Leu-NHMec substrate, 1536-well (AID 1619); type: functional
T4 sequence (Q8IL11 whole entry): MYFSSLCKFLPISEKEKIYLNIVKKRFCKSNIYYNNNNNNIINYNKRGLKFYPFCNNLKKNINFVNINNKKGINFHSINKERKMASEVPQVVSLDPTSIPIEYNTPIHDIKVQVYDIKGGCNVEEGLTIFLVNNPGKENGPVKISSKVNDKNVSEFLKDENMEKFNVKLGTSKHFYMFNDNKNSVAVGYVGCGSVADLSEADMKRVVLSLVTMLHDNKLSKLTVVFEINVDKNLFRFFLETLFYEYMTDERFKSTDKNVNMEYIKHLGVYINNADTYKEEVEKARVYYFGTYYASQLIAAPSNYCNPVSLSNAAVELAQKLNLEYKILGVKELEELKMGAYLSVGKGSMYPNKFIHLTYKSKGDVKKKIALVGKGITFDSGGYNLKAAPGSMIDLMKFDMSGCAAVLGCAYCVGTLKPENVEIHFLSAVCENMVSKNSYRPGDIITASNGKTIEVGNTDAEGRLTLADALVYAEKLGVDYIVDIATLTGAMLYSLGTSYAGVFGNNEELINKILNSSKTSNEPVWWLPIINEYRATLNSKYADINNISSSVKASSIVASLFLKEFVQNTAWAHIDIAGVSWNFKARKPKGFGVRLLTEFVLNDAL

[29] = target: Lytic switch protein BZLF1 (Epstein-Barr virus (strain B95-8) (HHV-4) (Human herpesvirus 4), UniProt P03206); assay: EBV ZTA inhibitors, dose response, counter-screen for EBNA-1 inhibitor project, biochemical, fluorescence polarization, Epstein-Barr virus, 1536-well (AID 2377); set-up: species or system human gammaherpesvirus 4;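 also: fluorescence polarization of Cy5-labelled ZRE DNA probe bound by purified Zta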
[30] = target: Epstein-Barr nuclear antigen 1 (Epstein-Barr virus (strain B95-8) (HHV-4) (Human herpesvirus 4), UniProt P03211); assay: EBNA-1 inhibitors, dose response, biochemical, fluorescence polarization, 1536-well (AID 2381); set-up: species or system human gammaherpesvirus 4;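 also: fluorescence polarization of a Cy5 DNA probe bound by EBNA-1 protein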
[31] = target: T5, Estrogen receptor (Homo sapiens, UniProt P03372); assay: potentiators of ERα–SRC-1 coactivator binding, dose response, biochemical, TR-FRET, ERα LBD (AID 737)
T5 sequence (P03372 whole entry): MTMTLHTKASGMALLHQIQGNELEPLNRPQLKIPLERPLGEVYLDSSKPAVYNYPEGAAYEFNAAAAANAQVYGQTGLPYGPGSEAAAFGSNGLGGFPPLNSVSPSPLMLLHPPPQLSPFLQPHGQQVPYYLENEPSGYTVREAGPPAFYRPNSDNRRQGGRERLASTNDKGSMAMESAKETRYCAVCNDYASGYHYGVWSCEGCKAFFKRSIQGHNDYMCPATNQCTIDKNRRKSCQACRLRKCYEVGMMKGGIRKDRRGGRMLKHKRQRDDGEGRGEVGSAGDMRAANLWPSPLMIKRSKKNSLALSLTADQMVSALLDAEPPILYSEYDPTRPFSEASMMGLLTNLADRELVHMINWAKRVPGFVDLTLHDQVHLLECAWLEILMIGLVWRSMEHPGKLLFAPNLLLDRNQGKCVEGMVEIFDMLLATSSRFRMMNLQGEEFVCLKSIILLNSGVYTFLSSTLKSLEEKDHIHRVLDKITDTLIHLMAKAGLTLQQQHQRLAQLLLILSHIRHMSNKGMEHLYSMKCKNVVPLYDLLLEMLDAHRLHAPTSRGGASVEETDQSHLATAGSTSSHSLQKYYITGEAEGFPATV

Sequence of Beta Lactamase (Q932Y6 whole entry): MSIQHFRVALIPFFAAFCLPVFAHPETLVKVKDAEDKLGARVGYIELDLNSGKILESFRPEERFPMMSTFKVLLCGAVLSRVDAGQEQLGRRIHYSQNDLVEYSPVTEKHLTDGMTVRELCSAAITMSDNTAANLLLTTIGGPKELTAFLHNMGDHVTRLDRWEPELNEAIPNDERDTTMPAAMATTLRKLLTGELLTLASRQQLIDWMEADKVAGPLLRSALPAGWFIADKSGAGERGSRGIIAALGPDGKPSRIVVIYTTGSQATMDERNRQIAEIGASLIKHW
Sequence of Beta-galactosidase (Q8VNN2 whole entry): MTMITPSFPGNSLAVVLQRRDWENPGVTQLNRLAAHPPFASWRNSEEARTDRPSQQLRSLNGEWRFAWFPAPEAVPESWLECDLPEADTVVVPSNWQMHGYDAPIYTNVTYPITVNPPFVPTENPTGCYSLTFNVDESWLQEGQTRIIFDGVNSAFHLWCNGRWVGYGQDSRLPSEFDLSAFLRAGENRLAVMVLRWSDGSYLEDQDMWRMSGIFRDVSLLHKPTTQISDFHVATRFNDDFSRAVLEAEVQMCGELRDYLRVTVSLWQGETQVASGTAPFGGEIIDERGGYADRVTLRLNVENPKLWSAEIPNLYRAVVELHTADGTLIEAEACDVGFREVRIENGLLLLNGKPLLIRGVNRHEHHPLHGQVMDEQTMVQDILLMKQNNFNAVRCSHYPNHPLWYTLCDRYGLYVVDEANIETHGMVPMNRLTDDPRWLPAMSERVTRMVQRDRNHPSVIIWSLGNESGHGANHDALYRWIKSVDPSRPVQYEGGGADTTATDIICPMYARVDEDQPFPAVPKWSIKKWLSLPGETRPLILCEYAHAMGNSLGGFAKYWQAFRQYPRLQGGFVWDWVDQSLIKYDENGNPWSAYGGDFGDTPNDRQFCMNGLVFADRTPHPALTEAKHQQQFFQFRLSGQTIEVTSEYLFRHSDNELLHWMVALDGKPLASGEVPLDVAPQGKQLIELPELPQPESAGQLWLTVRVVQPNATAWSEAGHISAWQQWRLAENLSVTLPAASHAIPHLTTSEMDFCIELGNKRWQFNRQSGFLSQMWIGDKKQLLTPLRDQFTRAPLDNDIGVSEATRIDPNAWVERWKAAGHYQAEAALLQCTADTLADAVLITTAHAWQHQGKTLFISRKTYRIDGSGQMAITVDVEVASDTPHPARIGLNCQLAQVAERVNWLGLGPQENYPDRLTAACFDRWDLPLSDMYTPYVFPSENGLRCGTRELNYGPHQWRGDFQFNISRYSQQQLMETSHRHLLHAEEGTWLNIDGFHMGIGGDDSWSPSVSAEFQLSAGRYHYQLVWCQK
Sequence of Procathepsin L (P07711 whole entry): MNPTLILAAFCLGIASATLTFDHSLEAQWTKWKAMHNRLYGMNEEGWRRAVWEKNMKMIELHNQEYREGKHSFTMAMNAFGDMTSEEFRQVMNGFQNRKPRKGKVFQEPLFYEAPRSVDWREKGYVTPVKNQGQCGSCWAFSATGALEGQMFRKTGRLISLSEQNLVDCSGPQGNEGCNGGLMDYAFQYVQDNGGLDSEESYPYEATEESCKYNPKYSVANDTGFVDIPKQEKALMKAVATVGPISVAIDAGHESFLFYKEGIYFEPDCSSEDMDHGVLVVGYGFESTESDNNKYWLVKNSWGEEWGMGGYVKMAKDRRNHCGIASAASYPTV
Sequence of Lytic switch protein BZLF1 (P03206 whole entry): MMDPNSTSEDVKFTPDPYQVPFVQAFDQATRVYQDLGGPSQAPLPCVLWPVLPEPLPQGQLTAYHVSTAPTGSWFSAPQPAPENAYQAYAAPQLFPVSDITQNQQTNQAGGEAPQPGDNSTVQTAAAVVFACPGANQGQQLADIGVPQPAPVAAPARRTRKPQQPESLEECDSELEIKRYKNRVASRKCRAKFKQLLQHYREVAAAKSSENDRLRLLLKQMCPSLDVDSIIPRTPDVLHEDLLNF
Sequence of G-protein coupled receptor 55 (Q9Y2T6 whole entry): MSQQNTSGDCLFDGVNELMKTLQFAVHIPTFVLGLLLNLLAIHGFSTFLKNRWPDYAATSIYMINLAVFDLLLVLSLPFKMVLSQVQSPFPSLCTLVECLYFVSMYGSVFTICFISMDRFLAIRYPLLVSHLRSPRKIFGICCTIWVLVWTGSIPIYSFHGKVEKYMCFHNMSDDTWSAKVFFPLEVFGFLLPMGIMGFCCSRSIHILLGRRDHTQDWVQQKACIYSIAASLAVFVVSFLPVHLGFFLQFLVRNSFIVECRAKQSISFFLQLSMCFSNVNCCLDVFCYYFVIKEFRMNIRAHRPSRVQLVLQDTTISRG
Sequence of Epstein-Barr nuclear antigen 1 (P03211 whole entry, the tested form may be a part): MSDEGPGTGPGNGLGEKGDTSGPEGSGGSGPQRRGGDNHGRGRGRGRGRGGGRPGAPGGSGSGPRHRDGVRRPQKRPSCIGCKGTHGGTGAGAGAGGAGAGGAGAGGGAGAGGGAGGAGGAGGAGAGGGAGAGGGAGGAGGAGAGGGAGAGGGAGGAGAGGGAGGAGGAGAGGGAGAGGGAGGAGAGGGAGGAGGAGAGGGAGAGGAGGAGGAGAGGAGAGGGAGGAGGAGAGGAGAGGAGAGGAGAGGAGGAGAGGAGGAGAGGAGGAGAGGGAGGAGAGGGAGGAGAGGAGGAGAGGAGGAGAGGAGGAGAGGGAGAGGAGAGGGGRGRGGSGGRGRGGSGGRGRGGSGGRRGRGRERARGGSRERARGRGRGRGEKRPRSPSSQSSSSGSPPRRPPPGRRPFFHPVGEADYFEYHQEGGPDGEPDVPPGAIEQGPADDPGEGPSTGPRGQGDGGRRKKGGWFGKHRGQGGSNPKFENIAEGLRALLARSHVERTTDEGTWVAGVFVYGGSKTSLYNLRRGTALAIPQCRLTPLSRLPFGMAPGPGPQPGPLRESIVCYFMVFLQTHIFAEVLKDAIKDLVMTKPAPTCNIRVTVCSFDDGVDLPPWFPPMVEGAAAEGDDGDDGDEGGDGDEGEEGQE
Sequence of Aspartyl aminopeptidase (Q8I2J3 whole entry): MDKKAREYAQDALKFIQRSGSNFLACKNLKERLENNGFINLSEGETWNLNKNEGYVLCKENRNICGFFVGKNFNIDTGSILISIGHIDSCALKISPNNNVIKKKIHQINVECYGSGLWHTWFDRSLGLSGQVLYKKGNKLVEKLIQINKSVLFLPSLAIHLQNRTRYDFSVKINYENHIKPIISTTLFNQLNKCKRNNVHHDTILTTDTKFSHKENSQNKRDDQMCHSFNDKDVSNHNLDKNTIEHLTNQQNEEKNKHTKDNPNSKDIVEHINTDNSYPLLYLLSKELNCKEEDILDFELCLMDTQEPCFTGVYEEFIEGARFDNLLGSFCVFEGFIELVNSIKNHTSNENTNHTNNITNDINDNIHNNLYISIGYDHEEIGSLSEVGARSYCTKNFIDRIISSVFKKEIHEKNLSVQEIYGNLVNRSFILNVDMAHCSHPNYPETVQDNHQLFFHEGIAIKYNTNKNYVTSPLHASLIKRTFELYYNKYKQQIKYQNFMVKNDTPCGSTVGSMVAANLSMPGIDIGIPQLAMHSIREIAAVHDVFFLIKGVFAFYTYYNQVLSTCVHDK
Sequence of Nucleotide-binding oligomerization domain-containing protein 2 (Q9HC29 whole entry, the tested form may be a part): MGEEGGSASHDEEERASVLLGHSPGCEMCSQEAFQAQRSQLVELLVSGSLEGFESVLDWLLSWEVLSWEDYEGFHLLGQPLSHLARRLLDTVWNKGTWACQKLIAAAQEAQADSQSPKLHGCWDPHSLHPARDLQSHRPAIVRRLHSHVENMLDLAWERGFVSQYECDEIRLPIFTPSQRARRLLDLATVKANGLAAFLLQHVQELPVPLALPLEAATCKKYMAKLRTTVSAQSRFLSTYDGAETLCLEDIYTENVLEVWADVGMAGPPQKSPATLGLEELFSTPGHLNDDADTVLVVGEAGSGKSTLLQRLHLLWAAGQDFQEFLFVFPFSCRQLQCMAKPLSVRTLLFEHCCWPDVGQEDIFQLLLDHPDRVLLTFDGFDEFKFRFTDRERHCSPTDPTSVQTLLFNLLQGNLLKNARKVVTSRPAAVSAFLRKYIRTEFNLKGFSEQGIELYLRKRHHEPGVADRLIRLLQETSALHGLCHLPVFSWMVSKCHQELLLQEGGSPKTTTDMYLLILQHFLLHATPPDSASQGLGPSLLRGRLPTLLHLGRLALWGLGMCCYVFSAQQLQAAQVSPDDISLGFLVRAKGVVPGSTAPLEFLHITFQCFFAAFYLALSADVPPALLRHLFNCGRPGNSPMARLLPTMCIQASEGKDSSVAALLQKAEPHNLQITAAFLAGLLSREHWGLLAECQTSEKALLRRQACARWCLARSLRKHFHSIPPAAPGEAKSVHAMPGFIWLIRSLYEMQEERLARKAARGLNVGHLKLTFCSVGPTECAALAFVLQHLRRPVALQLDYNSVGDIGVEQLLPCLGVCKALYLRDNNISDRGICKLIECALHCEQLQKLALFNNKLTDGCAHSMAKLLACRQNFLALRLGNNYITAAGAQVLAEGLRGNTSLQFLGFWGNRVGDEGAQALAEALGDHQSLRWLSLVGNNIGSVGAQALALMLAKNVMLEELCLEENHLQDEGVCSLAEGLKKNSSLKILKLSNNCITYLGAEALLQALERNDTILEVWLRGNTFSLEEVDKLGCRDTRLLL
Sequence of Sphingosine 1-phosphate receptor 2 (O95136 whole entry): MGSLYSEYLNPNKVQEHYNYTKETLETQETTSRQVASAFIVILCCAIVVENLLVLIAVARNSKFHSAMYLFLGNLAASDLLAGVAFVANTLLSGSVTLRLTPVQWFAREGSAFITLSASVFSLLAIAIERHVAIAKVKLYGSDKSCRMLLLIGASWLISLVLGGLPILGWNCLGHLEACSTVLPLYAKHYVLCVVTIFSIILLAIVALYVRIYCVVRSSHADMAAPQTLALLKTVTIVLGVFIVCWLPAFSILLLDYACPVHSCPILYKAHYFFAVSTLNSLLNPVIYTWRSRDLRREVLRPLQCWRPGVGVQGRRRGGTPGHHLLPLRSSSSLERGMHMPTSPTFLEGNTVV

CS(=O)(=O)N1CCN(CC2CC3C=CC2C3)CC1 (stereo unspecified)
EC50 [1]: > 120 µM (not active)

COc1ccc(-c2cc(N)n(S(=O)(=O)c3c(F)c(F)c(F)c(F)c3F)n2)cc1OC
IC50 [2]: > 100 µM (not active) | IC50 [3]: 951 nM (active) | IC50 [4]: > 20 µM (inactive) | IC50 [5]: 6.26 µM (active) | EC50 [6]: 3.9 µM (active) | AC50 [7]: 20.2 µM (active) | EC50 [8]: 2.15 µM (active) | EC50 [9]: 5.96 µM (inconclusive) | IC50 [10]: 5.82 µM (active) | IC50 [11]: 4.33 µM (active) and 4.96 µM (active) | EC50 [12]: 2.82 µM (active) | IC50 [13]: 16.4 µM (active) | IC50 [14]: 10.3 µM (active) | IC50 [15]: > 66.6 µM (inactive) | AC50 [16]: 4.25 µM (active) | IC50 [17]: 16.2 µM (active) | AC50 [18]: 3.69 µM (active) | AC50 [19]: 896 nM (active) | IC50 [20]: 1.18 µM (active) | IC50 [21]: 5.39 µM (active) | IC50 [22]: 34.3 µM (inactive) | AC50 [23]: 8.51 µM (active)

Cc1cc(C(=O)CN2C(=O)CCC2=O)c(C)n1Cc1ccc2c(c1)OCO2
EC50 [24]: > 30 µM (not active)

COC(=O)Cc1ccc2c3ccccc3n(C)c2c1
IC50 [25]: > 69.5 µM (not active)

O=C(O)Cc1ccc(NC(=O)Nc2ccc(Br)cc2)cc1
IC50 [26]: > 59.6 µM (not active) | IC50 [27]: > 73.5 µM (not active) | IC50 [28]: < 1 µM (active)

COc1ccc(CNc2nc(NCc3ccc(OC)cc3)n(C(C)=O)n2)cc1
IC50 [29]: > 111 µM (not active) | IC50 [30]: 37.8 µM (not active)

O=C(NCCCCCCNC(=O)c1ccc(Br)s1)c1ccc(Br)s1
EC50 [31]: 12.8 µM (not active)
